Test results from PubChem BioAssay AID1996.
Values after ≈ are worked out from the molar mass of the structure shown.

settings: buffer; pH 7.4; 200.0 µM

Row | solubility kinetic | SMILES
1 | > 42.8 µg/mL | COC(=O)c1ccccc1NC(=O)Nc1ccc(C)cn1
2 | > 37.5 µg/mL | Cc1ccnc(SCC(=O)c2cccs2)n1
3 | 36.5 µg/mL (≈ 122 µM) | COc1ccc(CCN=C(N)Nc2nc(C)cc(C)n2)cc1
4 | > 46.5 µg/mL | C[C@@H](C(=O)Nc1cccnc1)n1c(=O)[nH]c2ccccc2c1=O
5 | 9.2 µg/mL (≈ 33.3 µM) | Cc1ccccc1CNC(=O)c1ccc2ccccc2n1
6 | > 50.4 µg/mL | O=C(O)c1ccc2c(=O)n3c(nc2c1)/C(=C/c1ccc(F)cc1)CC3
7 | > 45.8 µg/mL | CCc1ccccc1NC(=O)c1cnn(-c2ccccc2)c1C
8 | > 50 µg/mL | Cc1cc(=O)[nH]c(SCC(=O)NCc2ccc3c(c2)OCO3)n1
9 | > 26.3 µg/mL | Cn1c(/C=N/O)nc2ccccc21
10 | 13.1 µg/mL (≈ 37.8 µM) | Cc1ccc(NC(=O)CCCNC(=O)c2ccc(Cl)cc2)c(O)c1
11 | 0.7 µg/mL (≈ 2.3 µM) | O=C(NC1CCCCC1)c1cc(-c2cccc(Cl)c2)on1
12 | 3.6 µg/mL (≈ 9.85 µM) | COc1cccc(OC)c1C(=O)Nc1ccccc1Sc1ccccc1
13 | > 41 µg/mL | COC1=C(N2CCOCC2)C(=O)c2ccccc2C1=O
14 | 3.8 µg/mL (≈ 13.3 µM) | COc1ccc2nc(Nc3ccccc3OC)sc2c1
15 | > 43.6 µg/mL | CCC(CC)C(=O)Nc1cccc(C(=O)NC(C)(C)C)c1
16 | 4 µg/mL (≈ 15.2 µM) | Cc1ccnc(NC(=O)c2ccc([N+](=O)[O-])s2)c1
17 | 10.4 µg/mL (≈ 35.3 µM) | O=C(CNc1ccccc1F)Nc1cccc2ccccc12
18 | 36.1 µg/mL (≈ 133 µM) | COCCn1c(-c2ccc(F)cc2)nc2cccnc21
19 | 19.3 µg/mL (≈ 67.4 µM) | Cc1cc(C)nc(SCC(=O)c2ccc(C)c(C)c2)n1
20 | 10.1 µg/mL (≈ 34.8 µM) | COC(=O)c1sccc1NC(=O)Nc1ccc(C)cc1
21 | > 45 µg/mL | Cc1cccc(Oc2nc3c(c(=O)n(C)c(=O)n3C)n2C)c1

Row | solubility kinetic | SMILES
22 | > 32.3 µg/mL | CC(C)c1ccc(N)c(S(=O)(=O)O)c1
23 | 36.9 µg/mL (≈ 113 µM) | O=c1cc(O)c2sc(Nc3cccc(C(F)(F)F)c3)nc2[nH]1
24 | > 46.1 µg/mL | Cc1ccc([N+](=O)[O-])c(OCCN2C(=O)NC(C)(C)C2=O)c1
25 | 26.9 µg/mL (≈ 62.3 µM) | COc1ccccc1N1CCN(c2ccc(S(=O)(=O)N3CCN(C)CC3)cn2)CC1
26 | > 49.1 µg/mL | CCN(CC)P(=O)(c1ccccc1)c1c(C)nc2ccccn12 (configuration not stated)
27 | > 29.1 µg/mL | COC(=O)c1nc2ccccn2c1F
28 | > 51.3 µg/mL | O=C1c2ccccc2C(=O)N1C(CO)C(O)c1ccc([N+](=O)[O-])cc1 (configuration not stated)
29 | > 55.6 µg/mL | Cc1nnc(SCC(=O)N(C)CC(=O)Nc2ccccc2Cl)s1
30 | < 0.4 µg/mL | COc1ccc(OC)c2c1sc(=NC(=O)C1CCCCC1)n2C
31 | > 79.4 µg/mL | CCCCn1c(N)c(N(CCOC)C(=O)CN(C)CC(=O)Nc2ccc(Cl)c(Cl)c2)c(=O)[nH]c1=O
32 | 34.8 µg/mL (≈ 112 µM) | O=Cc1c(NCCc2ccc(F)cc2)c2ccccc2[nH]c1=O
33 | 40 µg/mL (≈ 137 µM) | COc1ccc(OC(C)C(=O)NC2CCCCCC2)cc1 (configuration not stated)
34 | > 40.8 µg/mL | O=C(NCc1cccnc1)Nc1cccc([N+](=O)[O-])c1
35 | 38.2 µg/mL (≈ 143 µM) | CC1(C)CCC(=O)C=C1Nc1ccc(F)c(Cl)c1
36 | > 49.1 µg/mL | Cn1c(=O)n(C)c2cc(NC(=O)CSc3ccccc3)ccc21
37 | 8.7 µg/mL (≈ 24.8 µM) | Cc1cccc(C)c1NC(=O)c1ccc(OCc2c(C)noc2C)cc1
38 | 48.6 µg/mL (≈ 145 µM) | Cc1noc(C)c1S(=O)(=O)Nc1ccccc1OC(F)(F)F
39 | > 39.9 µg/mL | CC(C)(C)NC(=O)Cn1c(Cl)nc2ccccc21
40 | 15.4 µg/mL (≈ 68.1 µM) | Cc1ccc(Sc2cnccc2C#N)cc1
41 | > 40.8 µg/mL | CC(=O)N1C(C(=O)O)Cc2c([nH]c3ccccc23)C1C (configuration not stated)
42 | 2 µg/mL (≈ 7.38 µM) | Cc1noc(C(=O)Nc2cccc(Cl)c2)c1Cl

Row | solubility kinetic | SMILES
43 | 3 µg/mL (≈ 9.63 µM) | CCCN(c1ccc(C)cc1)c1nc(=O)c2cccnc2s1
44 | 24.9 µg/mL (≈ 78.2 µM) | CC(C)c1ccc(NC(=O)C2CSC3(C)CCC(=O)N23)cc1 (configuration not stated)
45 | 0.8 µg/mL (≈ 2.59 µM) | O=C(Nc1cccnc1)c1cc2c(s1)-c1ccccc1OC2
46 | > 37.7 µg/mL | Cc1c(O)c2ccccc2n(-c2ccccc2)c1=O
47 | 1.2 µg/mL (≈ 4.05 µM) | Cc1cccc(CSc2nc3ccccc3c(=O)n2C)c1
48 | 42.4 µg/mL (≈ 143 µM) | COc1ccc(C)cc1S(=O)(=O)NCc1cccs1
49 | > 43.6 µg/mL | CC(=O)Nc1cccc(OCCCNC(=O)C2CCC2)c1
50 | 1.3 µg/mL (≈ 3.59 µM) | O=C(Nc1ccccc1O)c1ccc2c(c1)C(=O)N(Cc1ccco1)C2=O
51 | 36.8 µg/mL (≈ 146 µM) | O=Cc1ccc(Oc2nc(Cl)ncc2F)cc1
52 | 3.1 µg/mL (≈ 12.3 µM) | Cc1ccccc1OCc1nc2ccccc2n1C
53 | 27.1 µg/mL (≈ 103 µM) | COC(=O)c1ccc(COC(=O)c2cccn2C)o1
54 | 12.1 µg/mL (≈ 58.3 µM) | Cc1[nH]c2ccccc2c1C(=O)CCl
55 | > 59.2 µg/mL | Cc1ccccc1-c1nnc(SCC(=O)N(C)C2CCS(=O)(=O)C2)n1C (configuration not stated)
56 | > 36.9 µg/mL | Cc1ccccc1CSc1[nH]c(=O)ncc1C
57 | > 40.7 µg/mL | Cc1nnc(NC(=O)c2ccc3nccnc3c2)s1
58 | 0.5 µg/mL (≈ 1.89 µM) | O=C(Nc1ccccn1)c1cc2ccccc2cc1O
59 | 35.5 µg/mL | Cc1cccc(C)c1OCCCN1CCOCC1.Cl
60 | < 0.4 µg/mL | C=CCn1c(=O)c(C(=O)Nc2ccc(C)cc2)c(O)c2ccccc21
61 | 0.6 µg/mL (≈ 1.51 µM) | COc1ccc(/C=C2\SC(=O)N(CC(=O)Nc3cccc(C)c3)C2=O)cc1O
62 | > 49.6 µg/mL | CCOC(=O)c1ccc(N2C(=O)C=C(N3CCOCC3)C2=O)cc1

Continued, compound first:

Row | SMILES | solubility kinetic
63 | COc1ccc(S(=O)(=O)N2CCOCC2)cc1C(=O)N(C)Cc1ccco1 | > 59.2 µg/mL
64 | COc1cccc(CNc2ccc(C(=O)O)cc2)c1OCc1ccccc1 | > 54.5 µg/mL
65 | CCN(CC(=O)Nc1ccc2c(c1)OCCO2)CC(=O)Nc1ccc(C)c(S(=O)(=O)N(C)C)c1 | 35.3 µg/mL (≈ 72 µM)
66 | CCC(CC)C(=O)Nc1ccc(-c2cn3cccnc3n2)cc1 | 43.4 µg/mL (≈ 141 µM)
67 | CC(C)(Oc1ccc(Cl)cc1)C(=O)NC1CCCCC1 | 3.9 µg/mL (≈ 13.2 µM)
68 | O=C(Nc1nccs1)c1ccc(Br)s1 | 5.6 µg/mL (≈ 19.4 µM)
69 | O=C(N/C(=C\c1ccco1)C(=O)N1CCCC1)c1ccccc1 | 41.6 µg/mL (≈ 134 µM)
70 | CC(C)CN(C(=O)c1ccco1)C1CCS(=O)(=O)C1 (configuration not stated) | > 42.8 µg/mL
71 | CCc1cccc(C)c1NC(=O)N(C)C1CCCCC1 | 35.6 µg/mL (≈ 130 µM)
72 | O=C(/C=C/c1ccc([N+](=O)[O-])cc1)NCc1ccc2c(c1)OCO2 | 0.9 µg/mL (≈ 2.76 µM)
73 | O=C(c1ccc([N+](=O)[O-])s1)N1CCc2ccccc21 | < 0.3 µg/mL
74 | O=S(=O)(c1ccccc1)N1CCN(CCO)CC1 | > 40.6 µg/mL
75 | CCCC(=O)Nc1ccc(NCc2ccc(C)s2)cc1 | > 43.3 µg/mL
76 | O=C(Nc1ccc(F)cc1)c1cccnn1 | > 32.6 µg/mL
77 | Cc1onc(-c2c(Cl)cccc2Cl)c1/C(N)=N/OC(=O)N(C)C | > 53.6 µg/mL
78 | O=C(Nc1ccc2c(c1)OCCO2)c1cccc(Br)c1 | 3.2 µg/mL (≈ 9.58 µM)
79 | O=C(NCc1ncc(C(F)(F)F)cc1Cl)Nc1ccccc1 | 3.1 µg/mL (≈ 9.4 µM)
80 | Cl.NS(=O)(=O)c1ccc(CCNCC#Cc2ccccc2)cc1 | > 52.6 µg/mL
81 | CCN(C(=O)COC(=O)CCC(=O)c1cccs1)c1ccccc1 | > 51.8 µg/mL
82 | Cc1cc(C)c(OCC(=O)OCC(=O)NC2CCCCCCC2)c(C)c1 | 23.5 µg/mL (≈ 65 µM)

Row | SMILES | solubility kinetic
83 | CCN1CCCC1CNc1ccc(S(C)(=O)=O)cc1[N+](=O)[O-] (configuration not stated) | > 49.1 µg/mL
84 | O=C1CN(C(=O)c2ccc(F)cc2)c2ccccc2N1 | > 40.5 µg/mL
85 | O=C(COC(=O)CSc1ccc(Cl)cc1)Nc1ccccc1 | > 50.4 µg/mL
86 | Cc1ccccc1NC(=O)N1CCC(C(=O)c2ccc(F)cc2)CC1 | 33.4 µg/mL (≈ 98.1 µM)
87 | N#CCCN(Cc1ccccc1)C(=O)c1nccnc1C(=O)O | > 46.5 µg/mL
88 | Clc1ccc(Cn2cnc3ccccc32)cc1 | 27 µg/mL (≈ 111 µM)
89 | CC1CN(C(=O)c2ccc(NS(=O)(=O)c3ccc(F)cc3)cc2)CC(C)O1 (configuration not stated) | > 58.9 µg/mL
90 | COCc1cccc(C(=O)NC(c2ccccc2)c2ccccc2)c1 | 3.1 µg/mL (≈ 9.35 µM)
91 | O=C(Nc1ccccc1)Nc1ccc(Nc2ccccc2)cc1 | < 0.2 µg/mL
92 | Cc1cc([N+](=O)[O-])nn1CCCC(=O)NC1CCCCC1 | > 44.2 µg/mL
93 | Cn1nccc1C(=O)N1CCOCC1 | > 29.3 µg/mL
94 | O=C(NCCc1ccccn1)c1cncc(Br)c1 | > 45.9 µg/mL
95 | CC1c2cc3c(cc2CCN1CC(=O)Nc1ccccc1)OCCCO3 (configuration not stated) | 3.9 µg/mL (≈ 11.1 µM)
96 | O=C(/C=C/c1ccc(F)cc1)NC(=S)Nc1ccccc1O | 1.8 µg/mL (≈ 5.69 µM)
97 | O=C(NC(=S)NCc1ccccc1Cl)c1cccs1 | 3.2 µg/mL (≈ 10.3 µM)
98 | O=C1N/C(=N\c2ccccn2)SC1Cc1ccccc1Cl (configuration not stated) | < 0.2 µg/mL
99 | CC(=O)c1c(-c2ccccc2)[nH]c2ccccc12 | 1.4 µg/mL (≈ 5.95 µM)
100 | CCCc1nnc(SCC(=O)N(CC)CC)n1CC1CCCO1 (configuration not stated) | > 51.1 µg/mL
101 | C(=C\c1ccccc1)/CNCC1CCCO1.Cl (configuration not stated) | 38 µg/mL
102 | CC(=O)c1ccc(OC(C)C(=O)NC2CCCCC2C)cc1 (configuration not stated) | > 45.5 µg/mL

Row | SMILES | solubility kinetic
103 | CC(=O)N1CCN(CC(=O)Nc2cc(F)ccc2C)CC1 | > 44 µg/mL
104 | COc1ccccc1CNC(=O)/C=C/C(=O)O | > 35.3 µg/mL
105 | COC(=O)NCN1C(=O)C2C3C=CC(C3)C2C1=O (configuration not stated) | 34.4 µg/mL (≈ 137 µM)
106 | Br.C=CCn1c(=N)n(CC(=O)c2ccccc2)c2ccccc21 | > 55.8 µg/mL
107 | CC(=O)c1cccc(NC(=S)N2c3ccccc3CC2C)c1 (configuration not stated) | 1.4 µg/mL (≈ 4.51 µM)
108 | CC(=O)Nc1ccc(S(=O)(=O)NC2CCCCCC2)cc1 | 35.1 µg/mL (≈ 113 µM)
109 | CN1CCN(C(=O)/C=C/c2ccccc2)CC1 | > 34.5 µg/mL
110 | CN(Cc1ccco1)C(=O)CN1C(=O)NC2(CCCC2)C1=O | 43 µg/mL (≈ 141 µM)
111 | C=CCNC(=O)COc1ccc(Oc2ccccc2)cc1 | > 42.5 µg/mL
112 | Nc1cc(S(=O)(=O)Nc2ccccc2Cl)ccc1N1CCCCC1 | 13.2 µg/mL (≈ 36.1 µM)
113 | N#C/C(=C\c1ccc2c(c1)OCCO2)C(=O)Nc1nccs1 | 28.8 µg/mL (≈ 91.9 µM)
114 | O=C(/C=C/c1cccnc1)c1ccc([N+](=O)[O-])cc1 | 9.8 µg/mL (≈ 38.5 µM)
115 | O=[N+]([O-])c1ccc(N2CCN(c3ccccn3)CC2)c(Cl)c1 | 0.8 µg/mL (≈ 2.51 µM)
116 | CCc1nc2cc3sc(CC)nc3cc2s1 | 0.6 µg/mL (≈ 2.42 µM)
117 | O=C(c1ccc(OC(F)(F)F)cc1)c1ncc[nH]1 | 37.2 µg/mL (≈ 145 µM)
118 | CC1(NC(=O)Cc2csc(-c3ccc(Cl)cc3)n2)CCS(=O)(=O)C1 (configuration not stated) | > 57.7 µg/mL
119 | CCOC(=O)C1C(c2ccccc2O)NC(=O)NC1(O)C(F)(F)F (configuration not stated) | > 52.2 µg/mL
120 | O=C(COC(=O)c1ccc(Cl)nc1)Nc1ccccc1OC(F)F | > 53.5 µg/mL
121 | O=C(O)c1ccc(Nc2ccc(Cl)c(Cl)c2)c([N+](=O)[O-])c1 | > 49.1 µg/mL
122 | CC1(C(=O)O)CCC(C(N)=O)C1(C)C (configuration not stated) | > 29.9 µg/mL
